From ChEMBL document CHEMBL5321295, “Targeted Degradation of Alpha-Synuclein by Autophagosome-Anchoring Chimera Peptides” (J Med Chem, 2023) come the findings set out here.

The nature of series [1]: Drug uptake in wild-type HEK293T cells assessed as drug penetration upto 100 uM incubated for 2 hrs by flow cytometry. Format: ADME, cell-based. The note with it: human, hek-293t.
Series [2] can be described thus: Drug uptake in wild-type HEK293T cells assessed as drug penetration upto 50 uM incubated for 2 hrs by confocal laser scanning microscopy. It counts as ADME, cell-based. The note with it: human, hek-293t.
For series [3], the target named is T1, Alpha-synuclein (Homo sapiens, UniProt P37840). As to the kind of experiment: Induction of alpha-synuclein (unknown origin) degradation overexpressed in HEK293T cells at 50 to 100 uM incubated for 24 hrs by immunoblot analysis. The settings on record: dose 50-100 µM. It counts as cell-based.
Series [4] deals with T1, Alpha-synuclein. As to the kind of experiment: Induction of alpha-synuclein (unknown origin) degradation overexpressed in HEK293T cells infected with adenovirus expressing mCherry-EGFP-LC3B incubated for 24 hrs by immunoblot analysis. Format: cell-based. The note with it: for Activity: dose <= 200.0 µM.
The test system of series [5] is HEK-293T. As to the kind of experiment: Cytotoxicity against wild-type HEK293T cells assessed as cell viability upto 200 uM incubated for 24 hrs by CCK8 assay. Format: toxicity, cell-based. The settings on record: human.
The nature of series [6]: Chemical stability of compound in cell culture medium at 50 uM measured for 24 hrs by HPLC analysis. Format: physicochemical.
Series [7] has as its system SH-SY5Y. In words: Cytotoxicity against wild-type human SH-SY5Y cells assessed as cell viability upto 200 uM incubated for 24 hrs by CCK8 assay. Format: functional, cell-based.
The target in series [8] is T2, Microtubule-associated protein 1 light chain 3 beta (Homo sapiens, UniProt Q9GZQ8). In words: Binding affinity to biotinylated recombinant LC3B (unknown origin) assessed as dissociation constant by BLI assay.
The target of series [9] is T1, Alpha-synuclein. In words: Binding affinity to biotinylated recombinant alpha-synuclein (unknown origin) assessed as dissociation constant by BLI assay.
Series [10] is described as follows: Drug uptake in wild-type HEK293T cells assessed as drug penetration at 50 uM incubated upto 4 hrs by flow cytometry. It counts as ADME, cell-based. The note with it: human, hek-293t.
The target in series [11] is T2, Microtubule-associated protein 1 light chain 3 beta. In words: Binding affinity to EGFP-fused LC3B (unknown origin) overexpressed in HEK293T cells at 50 uM incubated for 2 hrs by confocal laser scanning microscopy. Format: cell-based.
Series [12] addresses T1, Alpha-synuclein. As to the kind of experiment: Induction of EGFP-fused alpha-synuclein (unknown origin) degradation overexpressed in HEK293T cells at 50 uM incubated for 2 hrs by confocal laser scanning microscopy. Format: cell-based.
The nature of series [13]: Drug localization in HEK293T cells assessed as colocalization of lysosomes at 50 uM incubated for 2 hrs by LyTG staining based confocal laser scanning microscopy. It counts as ADME, cell-based. The settings on record: human, hek-293t.

Active and inactive are the calls of the source. The calls are words filed in the database; no cut-off is given here. Residues, ends and D or L forms follow the SMILES beside them. *: point of attachment. RhodamineB = CCN(CC)c1ccc2c(-c3ccccc3C(=O)*)c3ccc(=[N+](CC)CC)cc-3oc2c1

As to `CCN(CC)c1ccc2c(-c3ccccc3C(=O)NCC(=O)N[C@H](C(=O)N[C@@H](CC(C)C)C(=O)N[C@@H](Cc3ccc(O)cc3)C(=O)N[C@H](C(=O)NCC(=O)N[C@@H](CO)C(=O)N[C@@H](CCCCN)C(=O)N[C@H](C(=O)N[C@@H](CCCNC(=N)N)C(=O)NCC(=O)N[C@@H](CO)C(=O)NCC(=O)N[C@@H](CO)C(=O)N[C@@H](CO)C(=O)NCC(=O)NCC(=O)N[C@@H](CC(=O)O)C(=O)N[C@@H](CC(=O)O)C(=O)N[C@@H](CC(=O)O)C(=O)N[C@@H](Cc3c[nH]c4ccccc34)C(=O)N[C@H](C(=O)N[C@@H](Cc3c[nH]cn3)C(=O)N[C@@H](CC(C)C)C(=O)N[C@@H](CO)C(=O)N[C@@H](CO)C(=O)N[C@@H](CCCNC(=N)N)C(=O)N[C@@H](CCCNC(=N)N)C(=O)N[C@@H](CCCNC(=N)N)C(=O)N[C@@H](CCCNC(=N)N)C(=O)N[C@@H](CCCNC(=N)N)C(=O)N[C@@H](CCCNC(=N)N)C(=O)N[C@@H](CCCNC(=N)N)C(=O)O)[C@@H](C)O)[C@@H](C)O)C(C)C)C(C)C)c3ccc(=[N+](CC)CC)cc-3oc2c1.[Cl-]` (RhodamineB-GVLYVGSKTRGSGSSGGDDDWTHLSSRRRRRRR-OH), the Drug uptake entry in series [1] and in series [2] was “Active” throughout.

`CC(C)C[C@H](NC(=O)[C@@H](NC(=O)CN)C(C)C)C(=O)N[C@@H](Cc1ccc(O)cc1)C(=O)N[C@H](C(=O)NCC(=O)N[C@@H](CO)C(=O)N[C@@H](CCCCN)C(=O)N[C@H](C(=O)N[C@@H](CCCNC(=N)N)C(=O)NCC(=O)N[C@@H](CO)C(=O)NCC(=O)N[C@@H](CO)C(=O)N[C@@H](CO)C(=O)NCC(=O)NCC(=O)N[C@@H](CC(=O)O)C(=O)N[C@@H](CC(=O)O)C(=O)N[C@@H](CC(=O)O)C(=O)N[C@@H](Cc1c[nH]c2ccccc12)C(=O)N[C@H](C(=O)N[C@@H](Cc1c[nH]cn1)C(=O)N[C@H](C(=O)N[C@@H](CO)C(=O)N[C@@H](CO)C(=O)N[C@@H](Cc1ccc(O)cc1)C(=O)NCC(=O)N[C@@H](CCCNC(=N)N)C(=O)N[C@@H](CCCCN)C(=O)N[C@@H](CCCCN)C(=O)N[C@@H](CCCNC(=N)N)C(=O)N[C@@H](CCCNC(=N)N)C(=O)N[C@@H](CCC(N)=O)C(=O)N[C@@H](CCCNC(=N)N)C(=O)N[C@@H](CCCNC(=N)N)C(=O)N[C@@H](CCCNC(=N)N)C(=O)O)C(C)C)[C@@H](C)O)[C@@H](C)O)C(C)C` (H-GVLYVGSKTRGSGSSGGDDDWTHVSSYGRKKRRQRRR-OH): the outcome in series [3] was inactive.

`CC(C)C[C@H](NC(=O)[C@H](Cc1c[nH]cn1)NC(=O)[C@@H](NC(=O)[C@H](Cc1c[nH]c2ccccc12)NC(=O)[C@H](CC(=O)O)NC(=O)[C@H](CC(=O)O)NC(=O)[C@H](CC(=O)O)NC(=O)CNC(=O)CNC(=O)[C@H](CO)NC(=O)[C@H](CO)NC(=O)CNC(=O)[C@H](CO)NC(=O)CNC(=O)[C@H](CCCNC(=N)N)NC(=O)[C@@H](NC(=O)[C@H](CCCCN)NC(=O)[C@H](CO)NC(=O)CNC(=O)[C@@H](NC(=O)[C@H](Cc1ccc(O)cc1)NC(=O)[C@H](CC(C)C)NC(=O)[C@@H](NC(=O)CN)C(C)C)C(C)C)[C@@H](C)O)[C@@H](C)O)C(=O)N[C@@H](CO)C(=O)N[C@@H](CO)C(=O)N[C@@H](CCCNC(=N)N)C(=O)N[C@@H](CCCNC(=N)N)C(=O)N[C@@H](CCCNC(=N)N)C(=O)N[C@@H](CCCNC(=N)N)C(=O)N[C@@H](CCCNC(=N)N)C(=O)N[C@@H](CCCNC(=N)N)C(=O)N[C@@H](CCCNC(=N)N)C(=O)O` (H-GVLYVGSKTRGSGSSGGDDDWTHLSSRRRRRRR-OH): the DC50 in series [4] was 56.8 µM. The Activity result in series [4] is “Dose-Dependent Effect”; in [5], “Non-Toxic”. Further, the Stability result in [6] is “Stable”. Moreover, the outcome in [7] was inactive.

As to `CC[C@H](C)[C@H](NC(=O)[C@H](CCC(=O)O)NC(=O)[C@@H](NC(=O)[C@H](Cc1ccccc1)NC(=O)[C@H](CO)NC(=O)[C@H](CC(=O)O)NC(=O)[C@H](CCC(=O)O)NC(=O)[C@H](CO)NC(=O)[C@H](CO)NC(=O)CNC(=O)[C@H](CO)NC(=O)CNC(=O)[C@H](CO)NC(=O)CNC(=O)[C@H](CCCNC(=N)N)NC(=O)[C@@H](NC(=O)[C@H](CCCCN)NC(=O)[C@H](CO)NC(=O)CNC(=O)[C@@H](NC(=O)[C@H](Cc1ccc(O)cc1)NC(=O)[C@H](CC(C)C)NC(=O)[C@@H](NC(=O)CN)C(C)C)C(C)C)[C@@H](C)O)C(C)C)C(=O)N[C@@H](CCCNC(=N)N)C(=O)N[C@@H](CCSC)C(=O)N[C@@H](Cc1ccc(O)cc1)C(=O)NCC(=O)N[C@@H](CCCNC(=N)N)C(=O)N[C@@H](CCCCN)C(=O)N[C@@H](CCCCN)C(=O)N[C@@H](CCCNC(=N)N)C(=O)N[C@@H](CCCNC(=N)N)C(=O)N[C@@H](CCC(N)=O)C(=O)N[C@@H](CCCNC(=N)N)C(=O)N[C@@H](CCCNC(=N)N)C(=O)N[C@@H](CCCNC(=N)N)C(=O)O` (H-GVLYVGSKTRGSGSGSSEDSFVEIRMYGRKKRRQRRR-OH), the Kd in series [8] is 17.2 µM; in series [9], 41.6 µM. Also, in series [4], the DC50 is 140 µM. Besides, the Activity result in series [4] is “Dose-Dependent Effect”; in [5], “Non-Toxic”. Also, the Stability entry in [6] was “Stable”. Besides, the result in series [7] was inactive.

With `CC[C@H](C)[C@H](NC(=O)[C@H](Cc1ccc(O)cc1)NC(=O)[C@H](CC(=O)O)NC(=O)[C@H](CCC(=O)O)NC(=O)[C@H](CO)NC(=O)[C@H](CO)NC(=O)[C@H](C)NC(=O)[C@H](CO)NC(=O)[C@H](CO)NC(=O)CNC(=O)[C@H](CO)NC(=O)CNC(=O)[C@H](CCCNC(=N)N)NC(=O)[C@@H](NC(=O)[C@H](CCCCN)NC(=O)[C@H](CO)NC(=O)CNC(=O)[C@@H](NC(=O)[C@H](Cc1ccc(O)cc1)NC(=O)[C@H](CC(C)C)NC(=O)[C@@H](NC(=O)CN)C(C)C)C(C)C)[C@@H](C)O)C(=O)N[C@H](C(=O)N[C@H](C(=O)N[C@@H](CC(C)C)C(=O)N1CCC[C@H]1C(=O)N[C@@H](Cc1ccc(O)cc1)C(=O)NCC(=O)N[C@@H](CCCNC(=N)N)C(=O)N[C@@H](CCCCN)C(=O)N[C@@H](CCCCN)C(=O)N[C@@H](CCCNC(=N)N)C(=O)N[C@@H](CCCNC(=N)N)C(=O)N[C@@H](CCC(N)=O)C(=O)N[C@@H](CCCNC(=N)N)C(=O)N[C@@H](CCCNC(=N)N)C(=O)N[C@@H](CCCNC(=N)N)C(=O)O)[C@@H](C)CC)[C@@H](C)CC` (H-GVLYVGSKTRGSGSSASSEDYIIILPYGRKKRRQRRR-OH), the dissociation constant Kd turned out to be 15.2 µM in series [8] and 25.3 µM in [9]. Besides, in series [4], half-maximal degradation (DC50) was put at 73.8 µM. In addition, the Activity result in series [4] is “Dose-Dependent Effect”; in series [5] it was “Non-Toxic”. Further, the Stability entry in [6] is “Stable”. Further, the result in series [7] was inactive.

Take `CCN(CC)c1ccc2c(-c3ccccc3C(=O)NCC(=O)N[C@H](C(=O)N[C@@H](CC(C)C)C(=O)N[C@@H](Cc3ccc(O)cc3)C(=O)N[C@H](C(=O)NCC(=O)N[C@@H](CO)C(=O)N[C@@H](CCCCN)C(=O)N[C@H](C(=O)N[C@@H](CCCNC(=N)N)C(=O)NCC(=O)N[C@@H](CO)C(=O)NCC(=O)N[C@@H](CO)C(=O)N[C@@H](CO)C(=O)NCC(=O)NCC(=O)N[C@@H](CC(=O)O)C(=O)N[C@@H](CC(=O)O)C(=O)N[C@@H](CC(=O)O)C(=O)N[C@@H](Cc3c[nH]c4ccccc34)C(=O)N[C@H](C(=O)N[C@@H](Cc3c[nH]cn3)C(=O)N[C@@H](CC(C)C)C(=O)N[C@@H](CO)C(=O)N[C@@H](CO)C(=O)N[C@@H](Cc3ccc(O)cc3)C(=O)NCC(=O)N[C@@H](CCCNC(=N)N)C(=O)N[C@@H](CCCCN)C(=O)N[C@@H](CCCCN)C(=O)N[C@@H](CCCNC(=N)N)C(=O)N[C@@H](CCCNC(=N)N)C(=O)N[C@@H](CCC(N)=O)C(=O)N[C@@H](CCCNC(=N)N)C(=O)N[C@@H](CCCNC(=N)N)C(=O)N[C@@H](CCCNC(=N)N)C(=O)O)[C@@H](C)O)[C@@H](C)O)C(C)C)C(C)C)c3ccc(=[N+](CC)CC)cc-3oc2c1.[Cl-]` (RhodamineB-GVLYVGSKTRGSGSSGGDDDWTHLSSYGRKKRRQRRR-OH): the Drug uptake result in [10], in series [13], in [1] and in series [2] was “Active” throughout. Besides, the result in [11] and in series [12] was Active.

As for `CC(C)C[C@H](NC(=O)CNC(=O)[C@H](Cc1ccc(O)cc1)NC(=O)[C@@H](N)C(C)C)C(=O)N[C@@H](CCCNC(=N)N)C(=O)NCC(=O)N[C@H](C(=O)N[C@@H](CO)C(=O)N[C@H](C(=O)N[C@@H](CCCCN)C(=O)NCC(=O)N[C@@H](CO)C(=O)NCC(=O)N[C@@H](CO)C(=O)N[C@@H](CO)C(=O)NCC(=O)NCC(=O)N[C@@H](CC(=O)O)C(=O)N[C@@H](CC(=O)O)C(=O)N[C@@H](CC(=O)O)C(=O)N[C@@H](Cc1c[nH]c2ccccc12)C(=O)N[C@H](C(=O)N[C@@H](Cc1c[nH]cn1)C(=O)N[C@@H](CC(C)C)C(=O)N[C@@H](CO)C(=O)N[C@@H](CO)C(=O)N[C@@H](Cc1ccc(O)cc1)C(=O)NCC(=O)N[C@@H](CCCNC(=N)N)C(=O)N[C@@H](CCCCN)C(=O)N[C@@H](CCCCN)C(=O)N[C@@H](CCCNC(=N)N)C(=O)N[C@@H](CCCNC(=N)N)C(=O)N[C@@H](CCC(N)=O)C(=O)N[C@@H](CCCNC(=N)N)C(=O)N[C@@H](CCCNC(=N)N)C(=O)N[C@@H](CCCNC(=N)N)C(=O)O)[C@@H](C)O)[C@@H](C)O)C(C)C` (H-VYGLRGVSTKGSGSSGGDDDWTHLSSYGRKKRRQRRR-OH), the result in [3] was inactive.
